Assay results published in patent publication US20120093946A1, “USE OF CARBON DIOXIDE SUPPLYING MEANS FOR MUSCLE STRENGTHENING AND METHOD OF INCREASING CATTLE MEAT THEREBY” (priority 2007, published 2012).

What was measured:
[1] = tested on: muscle strength of the quadriceps femoris and the hamstrings; assay: Promotion of muscle strengthening by stretching exercise on isometric torque of legs, transdermal carbon dioxide absorption on treated leg; format: in vivo, human
Excerpt: Eight subjects including two subjects who played sports three times or more a week (hereinafter, referred to as “athlete”) and six subjects who played sports two times or less a week (hereinafter, referred to as “non-athlete”) participated in the experiment. Each subject did warming-up by pedaling a gym bicycle for ten minutes. Next, each subject did a stretching exercise on isometric torque of the quadriceps femoris 300 times or more by using training machine MyoretRZ-450 (Kawasaki Heavy Industries, Ltd.). Thus, an exercise load was applied to the quadriceps femoris. Then, the muscle strength of the quadriceps femoris and the muscle strength of the hamstrings to which an exercise load was not applied were measured by using MyoretRZ-450.
After the training was completed, the carbon dioxide absorption aid 4 described in Example 5 in Patent Document 7 (Japanese Patent Unexamined Publication No. 2004-517345) was applied to one determined leg (hereinafter, referred to as a “treated leg”). The treated leg was covered with an 80 cm-long polypropylene bag type sealing enclosure member equipped with a check valve. Then, the member was filled with carbon dioxide from a carbon dioxide gas cylinder and stood still for ten minutes. The carbon dioxide concentration was set to 80% (800,000 ppm). No treatment was given to the other leg (hereinafter, referred to as a “non-treated leg”). The training was carried out only once, this time.
Each subject allowed the treated leg to absorb carbon dioxide for ten minutes once a day as mentioned above by using the carbon dioxide supplying means for muscle strengthening of the present invention (by using a carbon dioxide external administration device as the carbon dioxide supplying means). Thereafter, the muscle strength of the quadriceps femoris and the muscle strength of the hamstrings were measured by using MyoretRZ-450.
On day 4 and later after the experiment was started, neither absorption of carbon dioxide nor stretching exercise on isometric torque of the quadriceps femoris was carried out. On day 7 after the experiment was started, the muscle strengths of the quadriceps femoris and the hamstrings were measured by using MyoretRZ-450.

[2] = tested on: muscle strengths of the quadriceps femoris and the hamstrings; assay: Promotion of muscle strengthening with no exercise load applied, three months; format: in vivo, human; details: month 3, no exercise load, 80% CO2 ten minutes at least once a week
Excerpt: Thirteen subjects (all males, aged from 27 to 43) participated in the experiment. In each subjects, the absorption aid 4 of carbon dioxide described in Example 5 in Patent Document 7 (Japanese Patent Unexamined Publication No. 2004-517345) was given to one determined leg (hereinafter, referred to as a “treated leg”). The treated leg was covered with an 80 cm-long polypropylene bag type sealing enclosure member equipped with a check valve. Then, carbon dioxide was filled in the member from a carbon dioxide gas cylinder and stood still for ten minutes. The carbon dioxide concentration was set to 80% (800,000 ppm). The treatment was carried out at least once a week for three months. No treatment was given to the other leg (hereinafter, referred to as a “non-treated leg”). Before and three months after the experiment was started, the muscle strengths of the treated leg and the non-treated leg were measured (the muscle strengths of the quadriceps femoris and the hamstrings were measured by using MyoretRZ-450).

rat lower thigh muscle = assay: Increase in amount of rat muscle with no exercise load applied, three months; format: in vivo, Wister rats
Excerpt: Nine male Wister rats (5-week old at the time when the experiment was started) were used.
In the CO2 group, the hair was removed from the right and left lower thighs of six rats under anesthesia. Then, the absorption aid 4 of carbon dioxide described in Example 5 in Patent Document 7 (Japanese Patent Unexamined Publication
No. 2004-517345) was applied to only the right lower thigh (hereinafter, referred to as a “treated limb”). Next, the rat lower body was covered with a polyethylene bag type sealing enclosure member provided with a hole through which the left hind limb comes out so that only the right hind limb absorbs carbon dioxide. Then, carbon dioxide was filled in the sealing enclosure member by using a carbon dioxide gas cylinder so as to inflate the sealing enclosure member. In order to always secure a sufficient amount of carbon dioxide in the sealing enclosure member, carbon dioxide was added at any time, so that the sealing enclosure member was filled with carbon dioxide for ten minutes. The carbon dioxide concentration inside the sealing enclosure member was set to 100%. […]
Three months later, the rat body weights were measured and the muscle was collected from the right and left lower thighs. The muscle wet weight of the collected muscle was measured, followed by detecting growth a acceleration indicating proteins of muscle fibers, MyoD and Myogenin (see Atsuko HARA et al., “Expression of myosin heavy chain isoforms, myogenin and MyoD in the course of regeneration of skeletal muscle,” Journal of Health Sciences of Hiroshima University, Vol. 2 (1): 12-18, 2002), and IGF-IR [see Junichi SUZUKI et al., “Effect of endurance training with L-arginine supplementation on expression of IGF-1 receptor in rat skeletal muscles” Research for Winter Sports, (the Proceedings of Research and Education Center for Winter Sports, Hokkaido University of Education), Vol. 8 (1) 1-7, 2005], by Western blotting. The resultant bands were analyzed on the analysis software (NIH-Image) so as to quantify each growth acceleration indicating protein. […]

grip strength = assay: Promotion of kaatsu training effect, grip strength; format: in vivo, human
Description: Two subjects participated in the experiment. The experiment was carried out according to Abe T. et al. (2006) Electromyographic responses of arm and chest muscle during bench press exercise with and without KAATSU. Int. J. Kaatsu Training Res. 2:15-18. The grip strengths of both hands of each subject were measured before the experiment was started. Next, the absorption aid 4 of carbon dioxide described in Example 5 in Patent Document 7 (Japanese Patent Unexamined Publication No. 2004-517345) was applied to the entire left arm of each subject, and the left arm was covered with an 80 cm-long polypropylene bag type sealing enclosure member equipped with a check valve. A cuff of blood pressure manometer was worn on the upper arm with the sealing enclosure member applied. Firstly, the upper arm was pressurized with a cuff pressure of 50 mmHg for 30 seconds. Next, the pressure was released once for 10 seconds, and then the upper arm was pressurized while gradually increasing the cuff pressure to 70 mmHg. When the cuff pressure reached 70 mmHg, the pressure was fixed. Then, carbon dioxide was filled in the sealing enclosure member from a carbon dioxide gas cylinder so as to inflate the sealing enclosure member. […]
Three days after the experiment, the grip strength of both hands of each subject was measured.

[3] = day 7, non-athletes, pre-ex defined as 100%
[4] = 100% CO2 ten minutes twice a week

Question: Which results are given for `O=C=O` [carbon dioxide]?
Answer: blood pressure and heart rate of the subjects during the absorption of carbon dioxide ([1]; after exercise load, 80% CO2, ten minutes, treated leg): did not change; muscle strengthening of the quadriceps femoris in the treated leg ([1]; day 7, all subjects, pre-ex defined as 100%, CO2 absorption stopped from day 4): 20%; muscle strengthening of the hamstrings (no exercise load) in the treated leg ([1]; day 7, all subjects, pre-ex defined as 100%, significant at P=5%): about 15%; muscle strengthening of the hamstrings (no exercise load) in the treated leg, non-athletes [1, 3]: about 20%; muscle strengthening of the quadriceps femoris in the treated leg, non-athletes [1, 3]: about 30%; muscle strengthening of the quadriceps femoris, treated leg compared with non-treated leg ([1]; days 2 to 4 of the experiment, CO2 ten minutes once a day): promoted; recovery of the muscle strength of the quadriceps femoris, treated leg versus non-treated leg ([1]; post-CO2, day of exercise load, 80% CO2, ten minutes): faster; muscle strengthening of the quadriceps femoris in the treated leg as compared with the non-treated leg ([2]; P=1%): about 15%; muscle strengthening of the hamstrings in the treated leg as compared with the non-treated leg ([2]; P=5%): about 15%; muscle wet weight per body weight, CO2 group as compared with CONTROL group (rat lower thigh muscle; [4]): increase; muscle wet weight, treated leg as compared with non-treated leg in the CO2 group (rat lower thigh muscle; [4]): remarkable increase; amount of growth acceleration indicating protein (MyoD, Myogenin, IGF-IR) extracted from the muscle, CO2 group versus CONTROL group (rat lower thigh muscle; Western blotting): increased; muscle strengthening rate (grip strength) compared with only pressurizing (grip strength; day 3 after kaatsu training, treated arm versus non-treated arm): two-times; muscle pain and fatigue accompanying kaatsu training (grip strength; left hand with carbon dioxide absorption versus only pressurizing and exercise): reduced
